Columns and labels:
[1] = test system: AP-1; assay: PMA-induced AP-1 luciferase expression in HEK cells; assay type: cell-based; details: luciferase in HEK/AP-1 cells, as described in Example 398; for inhibition at 1 µM: AP1, 1 uM
[2] = test system: NF-κB; assay: TNF-α-induced NF-κB-dependent luciferase expression in HEK cells; assay type: cell-based; details: luciferase in HEK/NF-κB cells, as described in Example 398; for inhibition at 1 µM: Homo sapiens, HEK293, 1 uM, read-out: NFkB inhibition @ 1 uM
[3] = test system: carageenan-induced edema; assay: Carrageenan-induced rat paw edema test (anti-inflammatory activity); assay type: in vivo, Sprague-Dawley rats; details: rat paw edema, 50 mg/kg, reading 3 hours after carrageenan, [(Control−Test)/Control]×100%; for inhibition in vivo at 50 mg/kg: Rattus norvegicus, po, 3 h, read-out: % Protection P
Method in brief: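 Edema was raised by sub-plantar injection of 1% carrageenan into the right hind paw, 1 h after dosing 18 h-fasted male/female Sprague-Dawley rats (150-250 g) with 50 mg/kg p.o. in 0.1% CMC. Swelling was measured by displacement 3 h later and expressed as % protection against saline control.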

| SMILES | inhibition at 1 µM [1] [%] | inhibition at 1 µM [2] [%] | inhibition in vivo at 50 mg/kg [3] [%] | AP-1 inhibition @ 1 uM [1] | NFkB inhibition @ 1 uM [2] | % Protection P [3] [%] |
| --- | --- | --- | --- | --- | --- | --- |
| COc1ccc(-n2c(-c3cc(-c4ccc(S(C)(=O)=O)cc4)c(N4CCOCC4)s3)nc3ccccc3c2=O)cc1 [Example 303, 2-[4-(4-Methanesulphonyl-phenyl)-5-morpholin-4-yl-thiophen-2-yl]-3-(4-methoxy-phenyl)-3H-quinazolin-4-one] | 10 | 60 | 53 |  |  |  |
| O=c1c2ccccc2nc(-c2cc(-c3ccncc3)c(N3CCOCC3)s2)n1-c1ccccc1Cl [Example 308, 3-(2-Chloro-phenyl)-2-(5-morpholin-4-yl-4-pyridin-4-yl-thiophen-2-yl)-3H-quinazolin-4-one] | 35 | 80 | 43 |  |  |  |
| O=c1c2ccccc2nc(-c2cc(-c3ccccc3)c(N3CCOCC3)s2)n1-c1ccc(Cl)cc1 [Example 309, 3-(4-Chloro-phenyl)-2-(5-morpholin-4-yl-4-phenyl-thiophen-2-yl)-3H-quinazolin-4-one] | 2 | 0 | 66 |  |  |  |
| O=c1c2ccccc2nc(-c2cc(-c3ccc(Cl)cc3)c(N3CCOCC3)s2)n1-c1ccc(Cl)cc1 [Example 310, 2-[4-(4-Chloro-phenyl)-5-morpholin-4-yl-thiophene-2-yl]-3-(4-chloro-phenyl)-3H-quinazolin-4-one] | 14 | 0 | 60 |  |  |  |
| CC(=O)Nc1ccc(-c2cc(-c3nc4ccccc4c(=O)n3-c3ccc(Cl)cc3)sc2N2CCOCC2)cc1 [Example 311] |  |  |  | 17 | 0 | 28 |
| CS(=O)(=O)c1ccc(-c2cc(-c3nc4ccccc4c(=O)n3-c3ccc(Cl)cc3)sc2N2CCOCC2)cc1 [Example 312, 2-[4-(4-Methanesulphonyl-phenyl)-5-morpholin-4-yl-thiophen-2-yl]-3-(4-chloro-phenyl)-3H-quinazolin-4-one] | 7 | 0 | 57 |  |  |  |
| O=c1c2ccccc2nc(-c2cc(-c3ccncc3)c(N3CCOCC3)s2)n1-c1ccc(Cl)cc1 [Example 313, 3-(4-Chloro-phenyl)-2-(5-morpholin-4-yl-4-pyridin-4-yl-thiophen-2-yl)-3H-quinazolin-4-one] | 32 | 68 | 52 |  |  |  |
| CC(=O)c1ccc(-n2c(-c3cc(-c4ccccc4)c(N4CCOCC4)s3)nc3ccccc3c2=O)cc1 [Example 314] |  |  |  | 25 | 0 | 36 |
| CC(=O)c1ccc(-c2cc(-c3nc4ccccc4c(=O)n3-c3ccc(Cl)cc3)sc2N2CCOCC2)cc1 [Example 315, 2-[4-(4-Acetyl-phenyl)-5-morpholin-4-yl-thiophene-2-yl]-3-(4-chloro-phenyl)-3H-quinazolin-4-one] | 7 | 0 | 51 |  |  |  |
| CC(=O)c1ccc(-n2c(-c3cc(-c4ccc(S(C)(=O)=O)cc4)c(N4CCOCC4)s3)nc3ccccc3c2=O)cc1 [Example 317, 2-[4-(4-Methanesulphonyl-phenyl)-5-morpholin-4-yl-thiophen-2-yl]-3-(4-acetyl-phenyl)-3H-quinazolin-4-one] | 31 | 46 | 73 |  |  |  |
| CC(=O)c1ccc(-n2c(-c3cc(-c4ccncc4)c(N4CCOCC4)s3)nc3ccccc3c2=O)cc1 [Example 319, 3-(4-acetyl-phenyl)-2-(5-morpholin-4-yl-4-pyridin-4-yl-thiophen-2-yl)-3Hquinazolin-4-one] | 84 | 66 | 81 |  |  |  |
| Cc1c(OCC(F)(F)F)ccnc1-c1sc(Nc2ccccc2)nc1N [Example 331, 5-[3-Methyl-4-(2,2,2-trifluoro-ethoxy)-pyridin-2-yl]-N2-phenyl-thiazole-2,4-diamine] | 27.4 | -10.6 | 62.3 |  |  |  |
| COc1ccc(C(=O)c2sc(Nc3ccc(Cl)cc3)nc2N)cc1 [Example 332, [4-Amino-2-(4-chloro-phenylamino)-thiazol-5-yl]-(4-methoxy-phenyl)-methanone] | -32.2 | 0.13 | 36 |  |  |  |
| Nc1nc(Nc2ccc(Cl)cc2)sc1C(=O)c1cccnc1 [Example 338, (4-Amino-2-(4-chlorophenylamino)-thiazol-5-yl)-pyridin-3-yl-methanone] | -89.1 | -84.1 | 25.8 |  |  |  |
| Nc1nc(Nc2ccc(Cl)cc2)sc1C(=O)c1ccccn1 [Example 340, [4-Amino-2-(4-chloro-phenylamino)-thiazol-5-yl]-pyridin-2-yl-methanone] | 57.3 | -18.2 | 34 |  |  |  |
| COc1ccc(Nc2nc(N)c(C(=O)c3ccc(C)cc3)s2)cc1 [Example 344, ([4-Amino-2-(4-methoxy-phenylamino)-thiazol-5-yl]-p-tolyl-methanone)] | 70.3 | 49 | 79.8 |  |  |  |
| COc1ccc(Nc2nc(N)c(C(=O)c3ccc(Cl)cc3Cl)s2)cc1 [Example 346, ([4-Amino-2-(4-methoxy-phenylamino)-thiazol-5-yl]-(2,4-dichloro-phenyl)-methanone)] | 64.6 | -4.13 | 28.3 |  |  |  |
| COc1ccc(Nc2nc(N)c(C(=O)c3cccnc3)s2)cc1 [Example 349, ([4-Amino-2-(4-methoxy-phenylamino)-thiazol-5-yl]-pyridin-3-yl-methanone)] | 51.5 | -35.9 | 18.2 |  |  |  |
| COc1ccc(Nc2nc(N)c(C(=O)c3ccccn3)s2)cc1 [Example 351, ([4-Amino-2-(4-methoxy-phenylamino)-thiazol-5-yl]-pyridin-2-yl-methanone)] | 51.5 | -35.9 | 27 |  |  |  |
| COc1ccc(Nc2nc(N)c(-c3nccc(OCC(F)(F)F)c3C)s2)cc1 [Example 353, (N2-(4-Methoxy-phenyl)-5-[3-Methyl-4-(2,2,2-trifluoro-ethoxy)-pyridin-2-yl]-thiazole-2,4-diamine)] | 62 | 59.1 | 82.5 |  |  |  |
| Cc1ccc(C(=O)c2sc(Nc3ccc(Cl)cc3)nc2NC(=O)Nc2ccc(F)cc2)cc1 [Example 356, 1-[2-(4-Chloro-phenylamino)-5-(4-methyl-benzoyl)-thiazol-4-yl]-3-(4-fluoro-phenyl)-urea] | 48.4 | 54.6 | 69.5 |  |  |  |
| Cc1ccc(C(=O)c2sc(N3CCN(C(=O)c4ccco4)CC3)nc2-c2ccco2)cc1 [Example 371, {2-[4-(Furan-2-carbonyl)-piperazin-1-yl]-4-furan-2-yl-thiazol-5-yl}-p-tolyl-methanone] | 25.6 | 10.4 | 34 |  |  |  |
| O=C(c1ccc(Cl)cc1)c1sc(N2CCN(C(=O)c3ccco3)CC2)nc1-c1ccco1 [Example 373, (4-Chloro-phenyl)-{2-[4-(furan-2-carbonyl)-piperazin-1-yl]-4-furan-2-yl-thiazol-5-yl}-methanone] | 26.9 | -6.07 | 42 |  |  |  |
| O=C(c1ccc(Cl)cc1Cl)c1sc(N2CCN(C(=O)c3ccco3)CC2)nc1-c1ccco1 [Example 374, (2,4-Dichloro-phenyl)-{2-[4-(furan-2-carbonyl)-piperazin-1-yl]-4-furan-2-yl-thiazol-5-yl}-methanone] | 46.2 | 6.25 | 62.6 |  |  |  |
| CS(=O)(=O)c1ccc(C(=O)c2sc(N3CCN(C(=O)c4ccco4)CC3)nc2-c2ccco2)cc1 [Example 375, {2-[4-(Furan-2-carbonyl)-piperazin-1-yl]-4-furan-2-yl-thiazol-5-yl}-(4-methanesulfonyl-phenyl)-methanone] | 22.1 | -13.2 | 49 |  |  |  |
| O=C(c1cccnc1)c1sc(N2CCN(C(=O)c3ccco3)CC2)nc1-c1ccco1 [Example 376, {2-[4-(Furan-2-carbonyl)-piperazin-1-yl]-4-furan-2-yl-thiazol-5-yl}-pyridin-3-yl-methanone] | 45.9 | -14.1 | 33 |  |  |  |
| O=C(c1ccncc1)c1sc(N2CCN(C(=O)c3ccco3)CC2)nc1-c1ccco1 [Example 377, {2-[4-(Furan-2-carbonyl)-piperazin-1-yl]-4-furan-2-yl-thiazol-5-yl}-pyridin-4-yl-methanone] | 4.84 | -7.88 | 32 |  |  |  |
| COc1c(C)cnc(-c2sc(N3CCN(C(=O)c4ccco4)CC3)nc2-c2ccco2)c1C [Example 378, Furan-2-yl-{4-[4-furan-2-yl-5-(4-methoxy-3,5-dimethyl-pyridin-2-yl)-thiazol-2-yl]-piperazin-1-yl}-methanone] | 43.3 | 22.1 | 84.2 |  |  |  |
